Measured values published in the CheMixHub viscosity set.

Assay: xn = mol fraction of the nth substance listed

CCCCCCC + CCCO
viscosity [mPa·s]
Conditions | 293.15 K | 298.15 K
100 kPa, x1 = 0.0569 | – | 1.654
100 kPa, x1 = 0.1025 | – | 1.453
100 kPa, x1 = 0.1996 | – | 1.138
100 kPa, x1 = 0.3052 | – | 0.9066
100 kPa, x1 = 0.4045 | – | 0.75
100 kPa, x1 = 0.5038 | – | 0.6265
100 kPa, x1 = 0.6039 | – | 0.5366
100 kPa, x1 = 0.7066 | – | 0.4713
100 kPa, x1 = 0.8001 | – | 0.4307
100 kPa, x1 = 0.8488 | – | 0.4168
100 kPa, x1 = 0.9551 | – | 0.4008
100 kPa, x2 = 0.1648 | – | 0.4406
100 kPa, x2 = 0.3402 | – | 0.5464
100 kPa, x2 = 0.5002 | – | 0.7014
100 kPa, x2 = 0.6602 | – | 0.9498
100 kPa, x2 = 0.8383 | – | 1.294
101 kPa, x1 = 0.0164 | – | 1.804
101 kPa, x1 = 0.102 | 1.641 | 1.477
101 kPa, x1 = 0.2018 | 1.291 | 1.166
101 kPa, x1 = 0.299 | 1.052 | 0.9499
101 kPa, x1 = 0.4005 | 0.8426 | 0.7687
101 kPa, x1 = 0.5017 | 0.6995 | 0.6453
101 kPa, x1 = 0.6033 | 0.5899 | 0.5511
101 kPa, x1 = 0.7025 | 0.5126 | 0.4886
101 kPa, x1 = 0.801 | 0.4793 | 0.4419
101 kPa, x1 = 0.8918 | 0.4475 | 0.4174
101 kPa, x2 = 0.0584 | – | 0.39
101 kPa, x2 = 0.1192 | – | 0.408
101 kPa, x2 = 0.1482 | – | 0.416
101 kPa, x2 = 0.2647 | – | 0.454
101 kPa, x2 = 0.3436 | – | 0.489
101 kPa, x2 = 0.4121 | – | 0.53
101 kPa, x2 = 0.5026 | – | 0.606
101 kPa, x2 = 0.5659 | – | 0.679
101 kPa, x2 = 0.654 | – | 0.811
101 kPa, x2 = 0.6877 | – | 0.872
101 kPa, x2 = 0.7447 | – | 0.994
101 kPa, x2 = 0.8298 | – | 1.222
101.33 kPa, x1 = 0.0127 | – | 1.873
101.33 kPa, x2 = 0.0468 | – | 0.393
101.33 kPa, x2 = 0.0919 | – | 0.409
101.33 kPa, x2 = 0.0989 | – | 0.403
101.33 kPa, x2 = 0.2079 | – | 0.4331
101.33 kPa, x2 = 0.2269 | – | 0.46
101.33 kPa, x2 = 0.2621 | – | 0.454
101.33 kPa, x2 = 0.34 | – | 0.52
101.33 kPa, x2 = 0.362 | – | 0.4992
101.33 kPa, x2 = 0.4038 | – | 0.571
101.33 kPa, x2 = 0.4569 | – | 0.576
101.33 kPa, x2 = 0.521 | – | 0.682
101.33 kPa, x2 = 0.5667 | – | 0.69
101.33 kPa, x2 = 0.598 | – | 0.776
101.33 kPa, x2 = 0.6616 | – | 0.876
101.33 kPa, x2 = 0.6636 | – | 0.832
